The values that follow come from patent publication US20260258084A1, “New Peptides as Selective IL-23 Receptor Antagonists” (Sanofi, priority 2022, published 2026).

By amount remaining is commonly meant what is left of the initial amount, in per cent.

The subject of one data set is Pancreatin. Put plainly: Protease stability in simulated intestinal fluid (Pancreatin-SIF, FaSSIF). It is filed as in vitro ADME. The conditions noted are these: 1 μM peptide, 37° C.; for remaining at 1 h, 1 µM: 60 min, read-out: FaSSIF 60 (min), remaining percent of peptide; for remaining at 2 h, 1 µM: 120 min, read-out: FaSSIF 120 (min), remaining percent of peptide; for remaining at 4 h, 1 µM: 240 min, read-out: FaSSIF 240 (min), remaining percent of peptide. As to the method: (§1) Studies were carried out in simulated intestinal fluid (SIF) and simulated gastric fluid (SGF) to evaluate gastric stability of the peptide compounds disclosed herein.
Similarly, the term “Pancreatin-SIF” refers to a solution of simulated intestinal fluid containing pancreatin whereas “SIF-media” refers to a solution of simulated intestinal fluid without pancreatin.
Pancreatin-SIF was prepared by dissolving 1 mg Pancreatin (MP Biomedicals) in 10 mL SIF media concentrate (ProSense).
(§2) Peptides were first dissolved at 1 mM stock concentration in 0.01 HCl (+/−10% of DMSO) and were than diluted further with water to a stock concentration of 20 μM. Final peptide concentration in the incubation was 1 μM.
(§3) To 76 μL of the Pepsin-SGF buffer, 4 μL of the 20 µM peptide stock solution was added and incubated at 37° C. At each timepoint (0, 60, 120 and 240 minutes) the reaction was quenched with addition of 80 μL Ethanol (0.1% HCOOH). The samples were centrifuged for 20 minutes and an aliquot of the supernatant 100 μL were transferred to a LoBind-MTP plate and analyzed by LCMS/MS. The peak area response was calculated at each time point for each test compound. As internal reference, the peak area response of the same test compound at TO was calculated. The percent remaining at each timepoint was calculated based on the peak area response ratio of the test compound at TO. Time 0 was set to 100%, and all later timepoints were calculated relative to time 0.

Data set [1] deals with T1, human interleukin-23 receptor (recombinant human IL-23R-Fc chimera) (Homo sapiens, UniProt Q5VWK5).
T1 construct: Fc (IgG Fc fusion)
Put plainly: Human ELISA IL23/IL23R (assay for specific human IL23R antagonists). Format: binding. The conditions noted are these: Table 10; read-out: Human ELISA IL23/IL23R IC50. The method in brief: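 Plates coated overnight at 4 °C with human IL23 ([…]), blocked, then serially diluted peptides added with recombinant human IL-23R-Fc (0.1 μg/ml final) for 60 min at room temperature. Bound receptor detected with anti-human IgG1-HRP and fluorogenic peroxidase substrate.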
(An ELISA detects its analyte on a solid surface through an enzyme-linked reagent.)

For the next data set, the system named is T2, Pepsin.
T2 construct: purchased Merck Millipore
Put plainly: Protease stability in simulated gastric fluid (Pepsin-SGF, FaSSGF). It is filed as in vitro ADME. As to conditions: simulated gastric fluid with pepsin (Pepsin-SGF), 60 min, 1 μM peptide, 37° C., read-out: FaSSGF 60 (min), remaining percent of peptide. The method, then: as §1
For clarification the term “Pepsin-SGF” refers to a solution of simulated gastric fluid containing pepsin whereas “SGF media” refers to a solution of simulated gastric fluid without pepsin. Pepsin-SGF was prepared by dissolving 320 mg Pepsin (Merck Millipore) in 100 mL SGF media concentrate (ProSense).
as §2
as §3, with “μM” for “µM”

Data set [2] has as its system IL-23 induced STAT3 signaling in HEK-Blue™ IL-23 cells. Kind of data set: IL-23 induced STAT3 signaling in HEK-Blue IL-23 cells (SEAP reporter). Format: cell-based. As to conditions: human IL23 0.25 ng/ml, read-out: pSTAT3. The method in brief:
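HEK-Blue IL-23 cells (10,000/well) pre-incubated 60 min at 37 °C with serially diluted peptides, then stimulated overnight with human IL-23 (0.25 ng/ml final). STAT3-driven SEAP in supernatant detected with QUANTI-Blue after 45 min at RT (OD 620-655 nm); dose-response curves fitted.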

Positions of bridges follow the written chain, without caps; N, C: chain ends. Non-standard residues stand in square brackets, D forms with d. Residues, ends and D or L forms follow the SMILES beside them. *: point of attachment. Trp(7-Me) = Cc1cccc2c(C[C@H](N)C(=O)O)c[nH]c12; 2Nal = N[C@@H](Cc1ccc2ccccc2c1)C(=O)O; αMeL = CC(C)C[C@](C)(N)C(=O)O; Thp = NC1(C(=O)O)CCOCC1; Me2NCH2CH2 = CN(C)CC*; Aib = CC(C)(N)C(=O)O; Ahx = NCCCCCC(=O)O; Ava = NCCCCC(=O)O

As to `COc1ccc(C[C@@H]2NC(=O)[C@@H]3CSSC[C@H](NC(=O)CCCCCNC(=O)C[C@@H](C(=O)N[C@@H](CC(N)=O)C(=O)N[C@@H](CC(N)=O)C(N)=O)NC(=O)C(C)(C)NC(=O)[C@H](Cc4ccc5ccccc5c4)NC2=O)C(=O)N[C@@H](CC(N)=O)C(=O)N[C@@H]([C@@H](C)O)C(=O)N[C@@H](Cc2c[nH]c4ccccc24)C(=O)N[C@@H](CCC(N)=O)C(=O)N3)cc1` [compound 3] ([Ahx]CNTWQCY(Me)[2Nal][Aib]DNN-NH2; disulfide 2-7; lactam N-11), the amount remaining at 1 h, 1 µM is 76% with Pancreatin and 1% with Pepsin. The share remaining at 2 h, 1 µM with Pancreatin is 64%. In addition, the share remaining at 4 h, 1 µM with Pancreatin was 38%. In addition, the IC50 was found to be 0.7 nM in data set [1] and 17.2 nM in data set [2].
Take `CC(=O)NCCCC[C@@H]1NC(=O)[C@H](Cc2c[nH]c3c(C)cccc23)NC(=O)[C@H]([C@@H](C)O)NC(=O)[C@H](CC(N)=O)NC(=O)[C@@H]2CSSC[C@H](NC1=O)C(=O)N[C@@H](Cc1ccc(OCCN(C)C)cc1)C(=O)N[C@@H](Cc1ccc3ccccc3c1)C(=O)NC(C)(C)C(=O)N[C@H](C(=O)N[C@@H](CC(N)=O)C(=O)N[C@@H](Cc1c[nH]cn1)C(N)=O)CCC(=O)NCCCCC(=O)N2` [compound 20] ([Ava]CNT[Trp(7-Me)]K(Ac)CY(Me2NCH2CH2)[2Nal][Aib]ENH-NH2; disulfide 2-7; lactam N-11): the amount remaining at 1 h, 1 µM is 85% in the data set on Pancreatin and 95% in the data set on Pepsin. Also, the amount remaining at 2 h, 1 µM in the data set with Pancreatin was 81%. Moreover, in the data set with Pancreatin, the share remaining at 4 h, 1 µM was 72%. Besides, the IC50 was 0.5 nM in data set [1] and 3.12 nM in data set [2].
For the molecule `CC(=O)NCCCC[C@@H]1NC(=O)[C@H](Cc2c[nH]c3c(C)cccc23)NC(=O)[C@H]([C@@H](C)O)NC(=O)[C@H](CC(N)=O)NC(=O)[C@@H]2CSSC[C@H](NC1=O)C(=O)N[C@@H](Cc1ccc(OCCN(C)C)cc1)C(=O)N[C@@H](Cc1ccc3ccccc3c1)C(=O)N[C@@](C)(CC(C)C)C(=O)N[C@H](C(=O)N[C@@H](CC(N)=O)C(=O)N[C@@H](Cc1c[nH]cn1)C(N)=O)CCC(=O)NCCCCC(=O)N2` [compound 22] ([Ava]CNT[Trp(7-Me)]K(Ac)CY(Me2NCH2CH2)[2Nal][αMeL]ENH-NH2; disulfide 2-7; lactam N-11), in the data set with Pancreatin, the share remaining at 1 h, 1 µM is 82%; the share remaining at 2 h, 1 µM was 79%; the share remaining at 4 h, 1 µM was 79%. In addition, in data set [1], the IC50 is 0.49 nM. Moreover, in the data set on Pepsin, the fraction remaining at 1 h, 1 µM is 60%. Also, in data set [2], the IC50 is 1.37 nM.
As to `C[C@@H](O)[C@@H]1NC(=O)[C@H](CC(N)=O)NC(=O)[C@@H]2CSSC[C@H](NC(=O)[C@H](CCC(N)=O)NC(=O)[C@H](Cc3c[nH]c4ccccc34)NC1=O)C(=O)N[C@@H](Cc1ccc(OCCN(C)C)cc1)C(=O)N[C@@H](Cc1ccc3ccccc3c1)C(=O)NC(C)(C)C(=O)N[C@H](C(=O)N[C@@H](CC(N)=O)C(=O)N[C@@H](CC(N)=O)C(N)=O)CCCCN(C)C(=O)CCC(=O)N2` [compound 25], the fraction remaining at 1 h, 1 µM was 71% with Pancreatin and 74% with Pepsin. Further, in the data set with Pancreatin, the amount remaining at 2 h, 1 µM was 52%. In addition, in the data set on Pancreatin, the share remaining at 4 h, 1 µM is 45%. Besides, the values for the IC50 in data set [1] and in data set [2] were 0.59 nM and 39.2 nM, respectively.
Turning to `C[C@@H](O)[C@@H]1NC(=O)[C@H](CC(N)=O)NC(=O)[C@@H]2CSSC[C@H](NC(=O)[C@H](CCC(N)=O)NC(=O)[C@H](Cc3c[nH]c4ccccc34)NC1=O)C(=O)N[C@@H](Cc1ccc(OCCN(C)C)cc1)C(=O)N[C@@H](Cc1ccc3ccccc3c1)C(=O)NC1(CCOCC1)C(=O)N[C@H](C(=O)N[C@@H](CC(N)=O)C(=O)N[C@@H](CC(N)=O)C(N)=O)CCC(=O)NCCCCC(=O)N2` [compound 26] ([Ava]CNTWQCY(Me2NCH2CH2)[2Nal][Thp]ENN-NH2; disulfide 2-7; lactam N-11), in the data set with Pancreatin, the share remaining at 1 h, 1 µM was 95%; the amount remaining at 2 h, 1 µM was 95%; the amount remaining at 4 h, 1 µM was 94%. Further, the IC50 in data set [1] turned out to be 0.29 nM. For the same molecule, in the data set with Pepsin, the fraction remaining at 1 h, 1 µM was 95%. In data set [2], the IC50 stood at 3.37 nM.
